Experimental findings from ChEMBL document CHEMBL5338797, “Rational Design of Covalent Kinase Inhibitors by an Integrated Computational Workflow (Kin-Cov)” (J Med Chem, 2023) are described below.

For experiment [1], the target named is T1, Mitogen-activated protein kinase kinase kinase 20 (Homo sapiens, UniProt Q9NYL2). In words: Inhibition of recombinant ZAK (unknown origin) using ATP as substrate preincubated for 60 mins followed by substrate addition and measured after 40 mins by fluorescence based envision multilabel reader method.
Target sequence in this assay (Q9NYL2 whole entry): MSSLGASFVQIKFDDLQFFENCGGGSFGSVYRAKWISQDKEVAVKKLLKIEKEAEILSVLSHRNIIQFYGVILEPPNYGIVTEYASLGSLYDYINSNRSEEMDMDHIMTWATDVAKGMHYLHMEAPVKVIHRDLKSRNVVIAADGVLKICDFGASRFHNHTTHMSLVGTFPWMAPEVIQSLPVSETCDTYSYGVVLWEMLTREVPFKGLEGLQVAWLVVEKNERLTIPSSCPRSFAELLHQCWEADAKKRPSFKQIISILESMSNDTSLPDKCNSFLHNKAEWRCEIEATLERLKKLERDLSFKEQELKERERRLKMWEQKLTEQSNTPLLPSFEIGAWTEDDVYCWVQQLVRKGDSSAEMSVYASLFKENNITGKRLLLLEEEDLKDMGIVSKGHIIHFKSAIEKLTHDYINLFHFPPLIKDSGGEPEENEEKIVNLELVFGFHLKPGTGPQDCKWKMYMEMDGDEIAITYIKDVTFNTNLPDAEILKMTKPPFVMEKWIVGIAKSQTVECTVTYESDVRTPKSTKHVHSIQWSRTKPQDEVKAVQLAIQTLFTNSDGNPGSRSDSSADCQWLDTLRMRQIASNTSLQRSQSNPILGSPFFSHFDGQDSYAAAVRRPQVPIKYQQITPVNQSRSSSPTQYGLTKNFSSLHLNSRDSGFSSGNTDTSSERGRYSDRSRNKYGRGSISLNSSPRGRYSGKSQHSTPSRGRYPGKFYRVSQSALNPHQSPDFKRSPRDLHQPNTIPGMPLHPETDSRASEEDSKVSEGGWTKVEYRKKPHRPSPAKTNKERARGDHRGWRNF
Experiment [2] addresses Serine/threonine-protein kinase B-raf (Homo sapiens, UniProt P15056, V600E). In words: Inhibition of B-RAF V600E mutant (unknown origin) incubated for 1 hr in presence of ATP by envision multilabel reader analysis.
The target in experiment [3] is MAP kinase p38 (Homo sapiens) (UniProt O15264+Q15759+Q16539+P53778). The experiment can be described thus: Inhibition of p38 phosphorylation in human U2OS cells measured for 1 hr by Western blot analysis. Particulars: dose <= 10.0 µM. The format is cell-based.
Experiment [4] has as its target T1, Mitogen-activated protein kinase kinase kinase 20. In words: Inhibition of partial length human ZAK by KINOMEscan assay.
Target sequence in this assay (Q9NYL2 whole entry): as above
The target of experiment [5] is T2, LIM domain kinase 1 (Homo sapiens, UniProt P53667). In words: Inhibition of full length human LIMK1 by KINOMEscan assay.
Target sequence in this assay (P53667 whole entry, the tested form may be a part): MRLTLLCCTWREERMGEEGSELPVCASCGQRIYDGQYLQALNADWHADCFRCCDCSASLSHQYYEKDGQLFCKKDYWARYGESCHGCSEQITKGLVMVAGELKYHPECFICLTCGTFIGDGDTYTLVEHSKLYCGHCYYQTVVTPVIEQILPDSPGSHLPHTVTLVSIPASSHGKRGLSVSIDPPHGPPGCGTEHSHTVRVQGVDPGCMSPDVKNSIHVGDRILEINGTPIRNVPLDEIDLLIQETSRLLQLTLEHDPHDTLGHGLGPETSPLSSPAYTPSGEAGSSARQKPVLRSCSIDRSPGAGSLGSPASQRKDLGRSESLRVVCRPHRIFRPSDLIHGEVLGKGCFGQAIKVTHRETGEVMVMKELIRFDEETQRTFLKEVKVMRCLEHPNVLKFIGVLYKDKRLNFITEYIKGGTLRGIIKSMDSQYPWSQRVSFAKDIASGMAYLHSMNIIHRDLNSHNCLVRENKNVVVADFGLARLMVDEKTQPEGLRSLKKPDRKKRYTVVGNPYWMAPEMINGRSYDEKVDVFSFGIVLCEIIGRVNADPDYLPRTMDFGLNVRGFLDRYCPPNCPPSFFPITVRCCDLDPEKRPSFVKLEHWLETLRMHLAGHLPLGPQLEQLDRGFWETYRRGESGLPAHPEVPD
Experiment [6] deals with T3, LIM domain kinase 2 (Homo sapiens, UniProt P53671). In words: Inhibition of full length human LIMK2 by KINOMEscan assay.
Target sequence in this assay (P53671 whole entry, the tested form may be a part): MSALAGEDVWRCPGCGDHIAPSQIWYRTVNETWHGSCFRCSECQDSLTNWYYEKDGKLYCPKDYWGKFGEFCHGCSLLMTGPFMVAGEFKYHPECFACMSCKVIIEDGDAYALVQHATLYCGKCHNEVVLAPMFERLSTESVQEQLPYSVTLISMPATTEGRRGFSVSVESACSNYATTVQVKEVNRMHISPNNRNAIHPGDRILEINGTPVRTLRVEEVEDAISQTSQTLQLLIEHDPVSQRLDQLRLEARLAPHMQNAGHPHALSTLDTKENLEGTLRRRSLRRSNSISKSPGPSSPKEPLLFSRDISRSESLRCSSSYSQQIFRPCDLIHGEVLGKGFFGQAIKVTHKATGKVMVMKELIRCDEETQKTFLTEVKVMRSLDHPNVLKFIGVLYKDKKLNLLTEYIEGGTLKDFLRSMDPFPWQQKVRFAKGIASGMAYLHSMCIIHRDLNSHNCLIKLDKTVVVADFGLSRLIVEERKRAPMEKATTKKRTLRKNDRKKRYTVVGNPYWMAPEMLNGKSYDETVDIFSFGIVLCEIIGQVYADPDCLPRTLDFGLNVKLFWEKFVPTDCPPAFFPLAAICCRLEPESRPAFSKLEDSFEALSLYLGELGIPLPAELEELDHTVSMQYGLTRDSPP
In experiment [7] the target is T4, Tyrosine-protein kinase Lck (Homo sapiens, UniProt P06239). The experiment can be described thus: Inhibition of partial length human LCK by KINOMEscan assay.
Target sequence in this assay (P06239 whole entry): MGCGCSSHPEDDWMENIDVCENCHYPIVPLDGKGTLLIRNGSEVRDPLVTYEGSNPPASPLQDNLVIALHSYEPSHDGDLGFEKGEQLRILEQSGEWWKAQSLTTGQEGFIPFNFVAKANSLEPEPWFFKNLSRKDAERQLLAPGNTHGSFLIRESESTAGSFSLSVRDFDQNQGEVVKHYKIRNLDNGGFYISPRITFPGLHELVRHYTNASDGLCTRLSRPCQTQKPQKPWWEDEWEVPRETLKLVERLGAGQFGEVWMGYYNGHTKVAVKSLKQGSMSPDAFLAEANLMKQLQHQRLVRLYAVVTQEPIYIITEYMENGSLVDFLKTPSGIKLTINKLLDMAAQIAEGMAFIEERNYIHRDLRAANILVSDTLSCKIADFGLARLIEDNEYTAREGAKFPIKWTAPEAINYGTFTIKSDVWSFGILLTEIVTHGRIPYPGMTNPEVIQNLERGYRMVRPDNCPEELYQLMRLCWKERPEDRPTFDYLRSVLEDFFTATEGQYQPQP
The target in experiment [8] is T1, Mitogen-activated protein kinase kinase kinase 20. The experiment can be described thus: Inhibition of ZAKapha (unknown origin) at 10 uM measured after 1 hr by Western blot analysis.
Target sequence in this assay (Q9NYL2 2-800 limits assumed): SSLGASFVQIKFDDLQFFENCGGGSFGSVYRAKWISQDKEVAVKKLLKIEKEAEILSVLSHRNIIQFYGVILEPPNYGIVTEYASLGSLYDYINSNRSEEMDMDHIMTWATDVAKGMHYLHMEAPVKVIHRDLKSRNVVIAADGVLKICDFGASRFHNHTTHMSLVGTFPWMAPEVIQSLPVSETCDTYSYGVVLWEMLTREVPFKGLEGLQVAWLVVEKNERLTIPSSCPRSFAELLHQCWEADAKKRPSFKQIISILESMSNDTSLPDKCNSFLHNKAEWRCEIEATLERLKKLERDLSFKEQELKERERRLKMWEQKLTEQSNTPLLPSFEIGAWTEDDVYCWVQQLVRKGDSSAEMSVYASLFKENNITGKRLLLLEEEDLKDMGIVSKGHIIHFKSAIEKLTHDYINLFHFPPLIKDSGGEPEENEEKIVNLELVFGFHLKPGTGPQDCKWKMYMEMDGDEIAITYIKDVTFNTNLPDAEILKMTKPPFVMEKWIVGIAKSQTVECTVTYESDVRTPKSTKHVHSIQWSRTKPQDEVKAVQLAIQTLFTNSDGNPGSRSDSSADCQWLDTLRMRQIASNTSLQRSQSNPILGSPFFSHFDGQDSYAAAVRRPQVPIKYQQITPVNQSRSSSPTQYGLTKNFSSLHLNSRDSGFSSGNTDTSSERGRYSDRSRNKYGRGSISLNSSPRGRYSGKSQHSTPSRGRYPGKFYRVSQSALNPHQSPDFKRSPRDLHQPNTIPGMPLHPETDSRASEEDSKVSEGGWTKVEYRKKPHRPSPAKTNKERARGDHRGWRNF
The target is the same in experiment [9]. The experiment can be described thus: Inhibition of ZAKbeta (unknown origin) at 10 uM measured after 1 hr by Western blot analysis.
Target sequence in this assay (Q9NYL2 2-800 limits assumed): as above
Experiment [10] has as its system U2OS. The experiment can be described thus: Induction of apoptosis in ZAK knockout human U2OS cells assessed as reduction in cell death at 10 uM measured after 24 hrs in presence of doxorubicin. The format is functional, cell-based.
Experiment [11] deals with U2OS. In words: Induction of apoptosis in human U2OS cells assessed as reduction in cell death at 10 uM measured after 24 hrs in presence of doxorubicin. The class given is functional, cell-based.
The test system of experiment [12] is U2OS. The experiment can be described thus: Induction of apoptosis in ZAK knockout human U2OS cells assessed as increase in cleaved-caspase 3 level at 10 uM measured for 4 hrs. The format is functional, cell-based.
The target of experiment [13] is T2, LIM domain kinase 1. The experiment can be described thus: Inhibition of full length human LIMK1 at 1000 nM by KINOMEscan assay relative to control; values are per cent of control.
Target sequence in this assay (P53667 whole entry, looked up, the tested form may be a part): as the sequence (P53667 whole entry, the tested form may be a part) above
Experiment [14] addresses T3, LIM domain kinase 2. The experiment can be described thus: Inhibition of full length human LIMK2 at 1000 nM by KINOMEscan assay relative to control; values are per cent of control.
Target sequence in this assay (P53671 whole entry, looked up, the tested form may be a part): as the sequence (P53671 whole entry, the tested form may be a part) above
The target of experiment [15] is T1, Mitogen-activated protein kinase kinase kinase 20. The experiment can be described thus: Inhibition of partial length human ZAK at 1000 nM by KINOMEscan assay relative to control; values are per cent of control.
Target sequence in this assay (Q9NYL2 2-800 limits assumed): as the sequence (Q9NYL2 2-800 limits assumed) above
For experiment [16], the target named is T4, Tyrosine-protein kinase Lck. In words: Inhibition of partial length human LCK at 1000 nM by KINOMEscan assay relative to control; values are per cent of control.
Target sequence in this assay (P06239 2-509 limits assumed): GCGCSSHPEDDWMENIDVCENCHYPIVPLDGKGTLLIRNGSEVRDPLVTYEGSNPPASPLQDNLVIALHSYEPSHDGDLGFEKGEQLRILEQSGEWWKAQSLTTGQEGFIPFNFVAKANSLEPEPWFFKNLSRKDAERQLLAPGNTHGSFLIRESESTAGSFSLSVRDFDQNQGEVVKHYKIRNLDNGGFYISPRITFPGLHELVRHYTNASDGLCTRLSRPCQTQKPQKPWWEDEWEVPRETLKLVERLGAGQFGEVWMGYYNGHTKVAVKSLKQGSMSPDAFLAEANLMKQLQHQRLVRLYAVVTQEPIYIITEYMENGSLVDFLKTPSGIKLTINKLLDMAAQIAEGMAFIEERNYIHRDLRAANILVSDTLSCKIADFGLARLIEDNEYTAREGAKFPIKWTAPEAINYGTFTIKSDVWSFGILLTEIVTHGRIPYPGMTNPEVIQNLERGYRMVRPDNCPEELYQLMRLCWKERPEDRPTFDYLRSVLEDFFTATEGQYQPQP
Experiment [17] concerns U2OS. In words: Induction of apoptosis in human U2OS cells assessed as increase in cleaved-caspase 3 level at 100 uM measured for 4 hrs. The class given is functional, cell-based.

Active and inactive are the calls of the source. The rule behind the calls is not given here.

Sequence of Serine/threonine-protein kinase B-raf (P15056 2-766 V600E limits assumed): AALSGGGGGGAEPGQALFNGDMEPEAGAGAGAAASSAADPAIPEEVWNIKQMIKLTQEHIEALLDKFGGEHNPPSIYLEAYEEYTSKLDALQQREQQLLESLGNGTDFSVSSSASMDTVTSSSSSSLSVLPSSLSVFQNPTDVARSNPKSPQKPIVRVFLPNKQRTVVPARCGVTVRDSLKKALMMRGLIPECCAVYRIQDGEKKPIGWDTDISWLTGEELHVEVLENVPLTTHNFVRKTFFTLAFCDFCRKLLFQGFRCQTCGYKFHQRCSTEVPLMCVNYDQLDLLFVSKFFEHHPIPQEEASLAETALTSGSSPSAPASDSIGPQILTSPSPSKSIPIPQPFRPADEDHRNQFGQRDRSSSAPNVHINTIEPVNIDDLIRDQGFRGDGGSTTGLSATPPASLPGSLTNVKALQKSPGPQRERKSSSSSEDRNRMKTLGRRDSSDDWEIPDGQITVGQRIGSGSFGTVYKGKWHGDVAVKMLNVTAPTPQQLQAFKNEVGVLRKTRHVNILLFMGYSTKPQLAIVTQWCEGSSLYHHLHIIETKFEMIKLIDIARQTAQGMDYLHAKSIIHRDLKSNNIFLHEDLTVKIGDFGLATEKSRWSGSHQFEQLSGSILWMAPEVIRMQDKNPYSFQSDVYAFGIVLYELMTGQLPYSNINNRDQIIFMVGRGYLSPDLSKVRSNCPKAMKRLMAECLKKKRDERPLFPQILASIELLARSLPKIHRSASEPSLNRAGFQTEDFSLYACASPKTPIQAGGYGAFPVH

Consider `C=CC(=O)N1CCCC(NC(=O)CCCCCCOc2n[nH]c3ncc(-c4cn(-c5c(F)ccc(NS(=O)(=O)c6cccc(-c7ccccc7)c6)c5F)nn4)cc23)C1` (configuration not stated), for which, in experiment [1], the IC50 is 34.7 nM.

Regarding `C=CC(=O)N1CCC(Oc2n[nH]c3ncc(-c4cn(-c5c(F)ccc(NS(=O)(=O)c6ccccc6)c5F)nn4)cc23)C1` (configuration not stated), the IC50 in experiment [1] came out at 10.1 nM; in [2], 247 nM.

As for `C=CC(=O)N1CC[C@H](Oc2n[nH]c3ncc(-c4cn(-c5c(F)ccc(NS(=O)(=O)c6cccc(-c7ccccc7)c6)c5F)nn4)cc23)C1`, the IC50 in [1] amounted to 9.9 nM.

Consider `C=CC(=O)NCCCOc1n[nH]c2ncc(-c3cn(-c4c(F)ccc(NS(=O)(=O)c5cccc(-c6ccccc6)c5)c4F)nn3)cc12`, for which the half-inhibitory concentration (IC50) in experiment [1] worked out at 9.1 nM.

For `COc1ccc(C[C@H]2NC[C@H](O)[C@H]2OC(C)=O)cc1`, the inhibition entry in [3] was “Dose-Dependent Effect”.

Take `COc1n[nH]c2ncc(-c3cn(-c4c(F)ccc(NS(=O)(=O)c5cccc(-c6ccccc6)c5)c4F)nn3)cc12`: the IC50 in experiment [1] was 8.8 nM; in [2], > 1000 nM.

As for `C=CC(=O)N1CCC(Oc2n[nH]c3ncc(-c4cn(-c5c(F)ccc(NS(=O)(=O)c6cccc(-c7ccccc7)c6)c5F)nn4)cc23)C1` (configuration not stated), the IC50 is 11.5 nM in [1]; > 1000 nM in [2]; 11.5 nM in experiment [4]; 12.3 nM in experiment [5]; 21.3 nM in [6]; 204 nM in experiment [7]. The inhibition result in experiment [3] is “Dose-Dependent Effect”. The inhibition result in experiment [8] and in experiment [9] was “Active” throughout. Further, the result in [10] and in [12] was inactive. The outcome in [11] was Active. For the same compound, the residual activity in experiment [13] was 9%; in experiment [14] it was 6%; in experiment [15] it was -4%; in experiment [16], 8%.

Consider `C=CC(=O)NCCCCCCN1CCC(COc2n[nH]c3ncc(-c4cn(-c5c(F)ccc(NS(=O)(=O)c6cccc(-c7ccccc7)c6)c5F)nn4)cc23)CC1`, for which the IC50 in experiment [1] turned out to be 10.1 nM.

For `COc1cccc2c1C(=O)c1c(O)c3c(c(O)c1C2=O)C[C@@](O)(C(=O)CO)C[C@@H]3O[C@H]1C[C@H](N)[C@H](O)[C@H](C)O1`, the outcome in experiment [17] was Active.

Turning to `C=CC(=O)N1CC[C@@H](Oc2n[nH]c3ncc(-c4cn(-c5c(F)ccc(NS(=O)(=O)c6cccc(-c7ccccc7)c6)c5F)nn4)cc23)C1`, in experiment [1], the IC50 was found to be 12.3 nM.
